“And” between values parts separate entries of the source, which are not always exact repeats. Identical values can stand only once. Counter-ions that a name gives are not always drawn. Like-named read-outs stand apart in the source and are kept apart here. Marks after values point to notes of the source that are not given here.

This note sets out measurements from patent publication US9751885B2, “Cyclopropanamine compound and use thereof” (Takeda Pharmaceutical Company Limited, priority 2012, dated 2017).

Data set [1] concerns white blood cell number, red blood cell number, platelet number. Description: Evaluation of blood cell number in mouse. It is filed as in vivo. The following applies: oral, Day 2 after administration. In outline:
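Male ICR mice dosed orally at 1, 10, 50 or 100 mg/kg (suspension in 0.5% methylcellulose/0.02% citric acid/water); whole blood collected on Day 2. White cell, red cell and platelet counts per unit volume by automated haematology analyser, expressed as % of mean of untreated control group.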

For data set [2], the system named is Gad1 H3K4me2 level in rat primary culture neurons. Description: Gad1 H3K4 methylation induction activity in rat primary culture neurons (ChIP-qPCR). It is filed as cell-based. As to conditions: Rattus norvegicus, Neuron, 72 h, control without compound = 100%; for activity at 1 µM: read-out: Gad1 H3K4me2 induction activity (%), compound 1 μM, 3 days, rat primary culture neurons; for activity at 10 µM: read-out: Gad1 H3K4me2 induction activity (%), compound 10 μM, 3 days, rat primary culture neurons. The procedure: Gad1 H3K4 Methylation Induction Activity in Rat Primary Culture Neurons
Thereafter, the compound was added to final concentrations of 1 or 10 μM, and the cells were further cultured for 3 days. The culture supernatant was aspirated, ice-cold PBS was added, and the cell suspension was collected on ice using CELL SCRAPER (IWAKI). […] (750 μL). Furthermore, 0.3% NP40/cell lysis buffer 1 (750 μL) was added, and the cells were lysed by incubating for 5 min on ice.
Using the DNA obtained by the chromatin immunoprecipitation as a template, quantitative PCR of the Gad1 gene upstream genomic region was performed, and the measurement value was taken as the Gad1 H3K4me2 level. […] The Gad1 H3K4me2 induction by the compound was expressed by the H3K4me2 level when the compound was added, as compared to the H3K4me2 level of the control (without addition of the compound) as 100%.
(Real-time PCR tracks product formation cycle by cycle.)

Data set [3] can be described thus: Evaluation of hippocampal distribution in mouse. It is filed as in vivo. The following applies: male ICR mice, 10 mg/kg oral; for concentration at 1 h: 1 hr after administration; for concentration at 0.5 h: 0.5 hr after administration. In outline:
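Male ICR mice dosed orally at 10 mg/kg as suspension in 0.5% methylcellulose/0.02% citric acid/water. Plasma and hippocampus sampled together at 0.5, 1 or 1.5 h; LC/MS/MS concentrations gave hippocampus/plasma ratio.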

The mark [4] stands for this setting: hippocampus, read-out: hippocampus concentration (mean).
Where [5] appears, read: plasma, read-out: plasma concentration (mean).

For the compound `Cn1cc(NC(=O)c2cccc([C@@H]3C[C@H]3NC3CCCC3)c2)cn1` (relative stereo) [Example 172, 3-(trans-2-(cyclopentylamino)cyclopropyl)-N-(1-methyl-1H-pyrazol-4-yl)benzamide dihydrochloride], in data set [1] (10 mg/kg), the “platelet number, percentage of compound administration group compared to control group, mean” value (from here on “platelet number, percentage”) is 97.0%; the “red blood cell number, percentage of compound administration group compared to control group, mean” value (from here on “red blood cell number, percentage”) was 99.0%; the “white blood cell number, percentage of compound administration group compared to control group, mean” value (“white blood cell number, percentage” below) is 101.3%. In data set [1] (100 mg/kg), the “platelet number, percentage” value turned out to be 99.6%; the “red blood cell number, percentage” value was 97.7%; the “white blood cell number, percentage” value was found to be 130.0%. For the same compound, in data set [2], the activity at 1 µM worked out at 145% and the activity at 10 µM is 204%. The concentration at 1 h in data set [3] (setting [4]) was 419 ng/g. Moreover, the concentration at 1 h in data set [3] (setting [5]) came to 556 ng/mL.
For `Cn1cc(NC(=O)c2cc([C@@H]3C[C@H]3NC3CCC(F)(F)CC3)ccc2F)cn1` (relative stereo) [Example 186, 5-(trans-2-((4,4-difluorocyclohexyl)amino)cyclopropyl)-2-fluoro-N-(1-methyl-1H-pyrazol-4-yl)benzamide hydrochloride], in data set [1] (10 mg/kg), the “platelet number, percentage” value came to 93.1%; the “red blood cell number, percentage” value is 101.5%; the “white blood cell number, percentage” value is listed as 129.3%. Besides, in data set [1] (100 mg/kg), the “platelet number, percentage” value was 88.2%; the “red blood cell number, percentage” value worked out at 99.2%; the “white blood cell number, percentage” value stood at 111.2%. Besides, in data set [2], the activity at 1 µM amounted to 239% and the activity at 10 µM was determined as 191%. Moreover, the concentration at 0.5 h in data set [3] (setting [4]) was found to be 3120 ng/g. For the same compound, in data set [3] (setting [5]), the concentration at 0.5 h came to 1320 ng/mL.
`Cc1nnc(NC(=O)c2cccc([C@@H]3C[C@H]3NCC3CC3)c2)s1` (relative stereo) [Example 96, 3-(trans-2-((cyclopropylmethyl)amino)cyclopropyl)-N-(5-methyl-1,3,4-thiadiazol-2-yl)benzamide hydrochloride]: the “platelet number, percentage” value in data set [1] (1 mg/kg) is 100.9^b %; in data set [1] (10 mg/kg, hydrochloride), 102.1% and 101.0^c %; in data set [1] (100 mg/kg), 102.4%. Further, the “red blood cell number, percentage” value is 107.4^b % in data set [1] (1 mg/kg); 97.9% and 102.6^c % in data set [1] (10 mg/kg, hydrochloride); 100.7% in data set [1] (100 mg/kg). Moreover, the “white blood cell number, percentage” value in data set [1] (1 mg/kg) was 116.6^b %; in data set [1] (10 mg/kg, hydrochloride), 61.5% and 122.4^c %; in data set [1] (100 mg/kg), 65.5%. Besides, the activity at 1 µM in data set [2] amounted to 122%. Further, in data set [2], the activity at 10 µM worked out at 151%. The figures for the concentration at 1 h in data set [3] (setting [4]) and in data set [3] (setting [5]) were 602 ng/g and 1060 ng/mL, respectively.
As for `O=C(NC1CCC(F)(F)CC1)c1cccc([C@@H]2C[C@H]2NC2CCOCC2)c1` (relative stereo) [Example 177, N-(4,4-difluorocyclohexyl)-3-(trans-2-(tetrahydro-2H-pyran-4-ylamino)cyclopropyl)benzamide hydrochloride], in data set [1] (10 mg/kg), the “platelet number, percentage” value is recorded as 101.3%; the “red blood cell number, percentage” value stood at 94.5%; the “white blood cell number, percentage” value came to 136.9%. In data set [1] (100 mg/kg), the “platelet number, percentage” value amounted to 97.4%; the “red blood cell number, percentage” value was 99.0%; the “white blood cell number, percentage” value came out at 97.1%. Moreover, in data set [2], the activity at 1 µM came out at 340% and the activity at 10 µM turned out to be 200%. Further, the concentration at 1 h in data set [3] (setting [4]) stood at 324 ng/g. The concentration at 1 h in data set [3] (setting [5]) is 630 ng/mL.
For the compound `O=C(NC1CCCC1)c1cccc([C@@H]2C[C@H]2NC2CCOCC2)c1` (relative stereo) [Example 168, N-cyclopentyl-3-(trans-2-(tetrahydro-2H-pyran-4-ylamino)cyclopropyl)benzamide hydrochloride], in data set [1] (10 mg/kg), the “platelet number, percentage” value is listed as 106.8%; the “red blood cell number, percentage” value came out at 106.5%; the “white blood cell number, percentage” value is 97.6%. In addition, in data set [1] (100 mg/kg), the “platelet number, percentage” value amounted to 99.0%; the “red blood cell number, percentage” value worked out at 101.1%; the “white blood cell number, percentage” value came out at 93.6%. In addition, in data set [2], the activity at 1 µM was found to be 227% and the activity at 10 µM is 263%. In addition, in data set [3] (setting [4]), the concentration at 0.5 h turned out to be 439 ng/g. Besides, in data set [3] (setting [5]), the concentration at 0.5 h is 451 ng/mL.
For the compound `Cc1nnc(NC(=O)c2cccc([C@@H]3C[C@H]3NC3CCN(C4CC4)CC3)c2)s1` (relative stereo) [Example 176, 3-(trans-2-((1-cyclopropylpiperidin-4-yl)amino)cyclopropyl)-N-(5-methyl-1,3,4-thiadiazol-2-yl)benzamide fumarate], in data set [1] (10 mg/kg), the “platelet number, percentage” value turned out to be 96.7%; the “red blood cell number, percentage” value was 97.5%; the “white blood cell number, percentage” value amounted to 106.6%. In data set [1] (100 mg/kg), the “platelet number, percentage” value was 90.2%; the “red blood cell number, percentage” value worked out at 100.8%; the “white blood cell number, percentage” value amounted to 107.8%. In addition, in data set [2], the activity at 1 µM turned out to be 139% and the activity at 10 µM amounted to 116%. For the same compound, the concentration at 1 h in data set [3] (setting [4]) stood at 642 ng/g. Further, in data set [3] (setting [5]), the concentration at 1 h came out at 515 ng/mL.
Turning to `Cc1nnc(NC(=O)c2cccc([C@@H]3C[C@H]3NC3CCOCC3)c2)s1` (relative stereo) [Example 165, N-(5-methyl-1,3,4-thiadiazol-2-yl)-3-(trans-2-(tetrahydro-2H-pyran-4-ylamino)cyclopropyl)benzamide fumarate], in data set [1] (10 mg/kg), the “platelet number, percentage” value was determined as 99.3%; the “red blood cell number, percentage” value was 100.9%; the “white blood cell number, percentage” value was 104.4%. In data set [1] (100 mg/kg), the “platelet number, percentage” value is reported as 85.6%; the “red blood cell number, percentage” value was found to be 103.2%; the “white blood cell number, percentage” value was 87.0%. Moreover, in data set [2], the activity at 1 µM was determined as 272% and the activity at 10 µM came to 373%. Moreover, the concentration at 1 h in data set [3] (setting [4]) is 376 ng/g. The concentration at 1 h in data set [3] (setting [5]) was 1840 ng/mL.
For the compound `CCn1cc(NC(=O)c2cccc([C@@H]3C[C@H]3NCC3CC3)c2)cn1` (relative stereo) [Example 101, 3-(trans-2-((cyclopropylmethyl)amino)cyclopropyl)-N-(1-ethyl-1H-pyrazol-4-yl)benzamide dihydrochloride], in data set [1] (10 mg/kg), the “platelet number, percentage” value is listed as 107.9%; the “red blood cell number, percentage” value amounted to 99.2%; the “white blood cell number, percentage” value came to 121.8%. Besides, in data set [1] (100 mg/kg), the “platelet number, percentage” value is 108.9%; the “red blood cell number, percentage” value stood at 98.5%; the “white blood cell number, percentage” value stood at 100.4%. Further, in data set [2], the activity at 1 µM stood at 128% and the activity at 10 µM came to 135%. Besides, the concentration at 0.5 h in data set [3] (setting [4]) was 181 ng/g. Further, the concentration at 0.5 h in data set [3] (setting [5]) worked out at 907 ng/mL.
